Results from PMC3694096, “Development of Novel In Vivo Chemical Probes to Address CNS Protein Kinase Involvement in Synaptic Dysfunction” (PLoS ONE, 2013).
pIC50: −log10 of the molar value. Like-named read-outs stand apart in the source and are kept apart here.

What was measured:
Experiment in all cases: Kinome profiler screen
Type in all cases: biochemical
[1] = biological target: T1, CK1γ2 (Homo sapiens, UniProt P78368); conditions: at 20,000 nM inhibitor; kinase activity remaining
T1 construct: purchased Millipore KinaseProfiler
T1 sequence (P78368 whole entry): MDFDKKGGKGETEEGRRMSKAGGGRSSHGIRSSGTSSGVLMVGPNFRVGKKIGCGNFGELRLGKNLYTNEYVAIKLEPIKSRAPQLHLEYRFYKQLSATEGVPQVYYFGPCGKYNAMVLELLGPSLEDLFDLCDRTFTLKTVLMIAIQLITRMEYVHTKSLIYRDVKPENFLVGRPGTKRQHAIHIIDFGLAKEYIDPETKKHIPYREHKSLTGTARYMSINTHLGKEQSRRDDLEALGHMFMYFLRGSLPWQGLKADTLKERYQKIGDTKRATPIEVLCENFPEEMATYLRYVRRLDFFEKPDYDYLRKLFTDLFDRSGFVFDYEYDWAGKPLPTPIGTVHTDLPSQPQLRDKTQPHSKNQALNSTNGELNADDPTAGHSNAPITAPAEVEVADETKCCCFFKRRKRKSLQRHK

[2] = biological target: T2, GRK7 (Homo sapiens, UniProt Q8WTQ7)
T2 construct: purchased Millipore KinaseProfiler
T2 sequence (Q8WTQ7 whole entry): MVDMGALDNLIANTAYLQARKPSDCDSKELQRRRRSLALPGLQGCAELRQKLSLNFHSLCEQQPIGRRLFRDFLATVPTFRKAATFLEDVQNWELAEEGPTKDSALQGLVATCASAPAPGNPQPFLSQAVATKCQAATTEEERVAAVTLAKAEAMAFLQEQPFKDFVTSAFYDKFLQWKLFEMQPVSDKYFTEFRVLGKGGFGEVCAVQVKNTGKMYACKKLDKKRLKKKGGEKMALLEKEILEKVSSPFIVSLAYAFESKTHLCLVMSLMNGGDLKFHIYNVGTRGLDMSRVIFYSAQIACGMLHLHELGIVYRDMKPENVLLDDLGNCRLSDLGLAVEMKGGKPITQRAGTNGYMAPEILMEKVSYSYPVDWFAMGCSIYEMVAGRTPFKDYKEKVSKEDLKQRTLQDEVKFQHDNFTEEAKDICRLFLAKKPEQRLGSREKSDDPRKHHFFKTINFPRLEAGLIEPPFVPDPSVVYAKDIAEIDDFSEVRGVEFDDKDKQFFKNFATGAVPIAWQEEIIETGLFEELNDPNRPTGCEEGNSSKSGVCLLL

[3] = biological target: T3, MELK (Homo sapiens, UniProt Q14680); conditions: at 20,000 nM inhibitor; kinase activity remaining
T3 construct: purchased Millipore KinaseProfiler
T3 sequence (Q14680 whole entry): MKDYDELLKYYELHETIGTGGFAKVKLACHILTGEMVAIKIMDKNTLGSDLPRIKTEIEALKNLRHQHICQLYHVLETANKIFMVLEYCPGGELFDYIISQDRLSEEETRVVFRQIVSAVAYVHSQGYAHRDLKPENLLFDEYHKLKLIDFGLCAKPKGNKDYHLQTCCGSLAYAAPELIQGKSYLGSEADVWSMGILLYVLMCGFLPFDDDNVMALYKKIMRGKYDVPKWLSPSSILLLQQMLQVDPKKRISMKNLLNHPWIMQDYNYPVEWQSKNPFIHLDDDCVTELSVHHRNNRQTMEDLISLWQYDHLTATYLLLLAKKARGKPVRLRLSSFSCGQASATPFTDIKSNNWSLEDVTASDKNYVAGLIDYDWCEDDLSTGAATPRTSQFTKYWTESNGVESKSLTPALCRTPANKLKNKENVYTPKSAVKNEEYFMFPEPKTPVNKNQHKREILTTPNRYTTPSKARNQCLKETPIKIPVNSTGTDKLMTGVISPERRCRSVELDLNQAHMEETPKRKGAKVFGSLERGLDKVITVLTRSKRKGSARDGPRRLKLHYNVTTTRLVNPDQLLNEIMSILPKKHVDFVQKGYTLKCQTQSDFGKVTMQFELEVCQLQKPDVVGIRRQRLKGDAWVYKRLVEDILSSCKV

[4] = biological target: T4, CLK3 (Homo sapiens, UniProt P49761); conditions: at 20,000 nM inhibitor; kinase activity remaining
T4 construct: purchased Millipore KinaseProfiler
T4 sequence (P49761 whole entry): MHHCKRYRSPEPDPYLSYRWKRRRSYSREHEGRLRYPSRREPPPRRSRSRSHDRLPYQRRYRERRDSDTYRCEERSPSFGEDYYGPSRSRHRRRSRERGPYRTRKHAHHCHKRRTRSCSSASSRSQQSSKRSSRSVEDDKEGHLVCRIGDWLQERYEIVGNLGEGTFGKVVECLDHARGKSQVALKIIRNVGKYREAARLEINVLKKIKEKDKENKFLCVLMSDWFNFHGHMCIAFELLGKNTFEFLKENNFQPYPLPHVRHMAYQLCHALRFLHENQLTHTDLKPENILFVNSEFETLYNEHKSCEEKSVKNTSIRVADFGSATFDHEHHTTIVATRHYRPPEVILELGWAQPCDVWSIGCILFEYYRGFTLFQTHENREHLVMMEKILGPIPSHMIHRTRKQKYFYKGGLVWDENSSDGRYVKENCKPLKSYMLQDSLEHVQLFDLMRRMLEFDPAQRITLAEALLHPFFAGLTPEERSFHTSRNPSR

[5] = biological target: T5, PKCβII (Homo sapiens, UniProt P05771); conditions: at 20,000 nM inhibitor; kinase activity remaining
T5 construct: purchased Millipore KinaseProfiler

[6] = biological target: T6, Rse (Homo sapiens, UniProt Q06418); conditions: at 20,000 nM inhibitor; kinase activity remaining
T6 construct: purchased Millipore KinaseProfiler

[7] = biological target: T7, MEK1 (Homo sapiens, UniProt Q02750); conditions: at 20,000 nM inhibitor; kinase activity remaining
T7 construct: purchased Millipore KinaseProfiler

[8] = biological target: T8, EphB2 (Homo sapiens, UniProt P29323); conditions: for activity at 20 µM: at 20,000 nM inhibitor, kinase activity remaining
T8 construct: purchased Millipore
T8 sequence (P29323 19-1055): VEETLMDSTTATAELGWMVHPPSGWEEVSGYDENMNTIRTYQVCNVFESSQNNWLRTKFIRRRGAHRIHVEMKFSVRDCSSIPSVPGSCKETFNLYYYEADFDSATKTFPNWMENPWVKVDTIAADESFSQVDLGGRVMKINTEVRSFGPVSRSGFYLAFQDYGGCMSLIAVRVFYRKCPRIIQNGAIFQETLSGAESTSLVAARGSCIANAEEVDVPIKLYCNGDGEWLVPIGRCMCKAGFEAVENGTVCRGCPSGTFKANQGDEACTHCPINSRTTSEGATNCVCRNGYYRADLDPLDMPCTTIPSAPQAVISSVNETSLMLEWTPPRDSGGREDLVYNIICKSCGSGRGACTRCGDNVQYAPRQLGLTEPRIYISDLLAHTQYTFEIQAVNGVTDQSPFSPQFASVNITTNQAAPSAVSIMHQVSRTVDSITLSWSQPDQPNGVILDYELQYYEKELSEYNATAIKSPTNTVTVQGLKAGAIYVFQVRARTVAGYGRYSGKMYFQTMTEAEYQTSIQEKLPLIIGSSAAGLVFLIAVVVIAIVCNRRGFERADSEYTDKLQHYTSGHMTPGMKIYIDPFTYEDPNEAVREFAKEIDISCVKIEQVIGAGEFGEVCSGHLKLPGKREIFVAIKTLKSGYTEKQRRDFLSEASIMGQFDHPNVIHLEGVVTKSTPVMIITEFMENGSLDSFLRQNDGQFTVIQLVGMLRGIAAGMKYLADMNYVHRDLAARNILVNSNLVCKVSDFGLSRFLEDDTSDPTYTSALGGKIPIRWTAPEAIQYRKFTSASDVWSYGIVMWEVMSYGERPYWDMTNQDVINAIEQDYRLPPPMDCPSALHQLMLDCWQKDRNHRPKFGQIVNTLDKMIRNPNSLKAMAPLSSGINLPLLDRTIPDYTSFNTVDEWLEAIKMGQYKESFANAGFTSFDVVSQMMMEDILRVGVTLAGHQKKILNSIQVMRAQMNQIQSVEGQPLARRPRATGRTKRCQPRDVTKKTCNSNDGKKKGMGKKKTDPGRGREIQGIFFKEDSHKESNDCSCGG

[9] = biological target: T9, CSK (Homo sapiens, UniProt P41240); conditions: at 20,000 nM inhibitor; kinase activity remaining
T9 construct: purchased Millipore KinaseProfiler
T9 sequence (P41240 whole entry): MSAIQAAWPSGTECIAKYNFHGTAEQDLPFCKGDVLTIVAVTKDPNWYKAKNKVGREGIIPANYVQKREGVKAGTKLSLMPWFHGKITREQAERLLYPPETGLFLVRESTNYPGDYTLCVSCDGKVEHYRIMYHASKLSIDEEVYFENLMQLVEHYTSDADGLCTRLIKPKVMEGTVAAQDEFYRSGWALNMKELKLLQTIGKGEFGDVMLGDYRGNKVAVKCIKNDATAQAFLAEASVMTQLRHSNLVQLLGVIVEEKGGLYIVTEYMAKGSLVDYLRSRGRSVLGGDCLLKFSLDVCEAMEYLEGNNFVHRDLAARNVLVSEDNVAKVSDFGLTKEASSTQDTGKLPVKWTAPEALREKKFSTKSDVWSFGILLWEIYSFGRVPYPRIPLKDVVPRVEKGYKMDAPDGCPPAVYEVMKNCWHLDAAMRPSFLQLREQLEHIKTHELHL

[10] = biological target: T10, DDR2 (Homo sapiens, UniProt Q16832)
T10 construct: purchased Millipore
T10 sequence (Q16832 22-855): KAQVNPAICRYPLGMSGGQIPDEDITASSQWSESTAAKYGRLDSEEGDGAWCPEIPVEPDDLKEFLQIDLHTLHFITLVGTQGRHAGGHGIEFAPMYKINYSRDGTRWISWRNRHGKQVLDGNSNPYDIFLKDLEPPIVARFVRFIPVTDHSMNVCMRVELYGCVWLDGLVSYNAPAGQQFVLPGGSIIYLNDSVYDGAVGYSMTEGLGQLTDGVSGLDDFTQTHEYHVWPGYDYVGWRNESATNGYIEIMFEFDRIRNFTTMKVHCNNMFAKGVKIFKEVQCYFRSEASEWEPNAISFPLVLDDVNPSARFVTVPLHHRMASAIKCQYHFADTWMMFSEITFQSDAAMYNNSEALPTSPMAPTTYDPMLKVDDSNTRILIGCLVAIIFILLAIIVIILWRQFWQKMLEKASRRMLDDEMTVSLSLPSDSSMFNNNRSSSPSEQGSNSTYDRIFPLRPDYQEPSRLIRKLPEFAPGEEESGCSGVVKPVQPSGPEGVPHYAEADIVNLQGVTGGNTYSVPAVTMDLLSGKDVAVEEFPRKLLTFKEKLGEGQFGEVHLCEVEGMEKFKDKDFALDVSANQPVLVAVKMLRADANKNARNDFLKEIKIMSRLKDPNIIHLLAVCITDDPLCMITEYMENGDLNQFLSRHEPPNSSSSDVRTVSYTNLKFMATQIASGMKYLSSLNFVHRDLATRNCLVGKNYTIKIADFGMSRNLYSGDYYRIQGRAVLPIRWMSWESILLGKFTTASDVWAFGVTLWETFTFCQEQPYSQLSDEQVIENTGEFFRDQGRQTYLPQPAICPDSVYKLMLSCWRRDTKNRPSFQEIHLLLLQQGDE

[11] = biological target: T11, PAK5 (Homo sapiens, UniProt Q9P286); conditions: at 20,000 nM inhibitor; kinase activity remaining
T11 construct: purchased Millipore KinaseProfiler

[12] = biological target: T12, ULK2 (Homo sapiens, UniProt Q8IYT8); conditions: at 20,000 nM inhibitor; kinase activity remaining
T12 construct: purchased Millipore KinaseProfiler
T12 sequence (Q8IYT8 whole entry): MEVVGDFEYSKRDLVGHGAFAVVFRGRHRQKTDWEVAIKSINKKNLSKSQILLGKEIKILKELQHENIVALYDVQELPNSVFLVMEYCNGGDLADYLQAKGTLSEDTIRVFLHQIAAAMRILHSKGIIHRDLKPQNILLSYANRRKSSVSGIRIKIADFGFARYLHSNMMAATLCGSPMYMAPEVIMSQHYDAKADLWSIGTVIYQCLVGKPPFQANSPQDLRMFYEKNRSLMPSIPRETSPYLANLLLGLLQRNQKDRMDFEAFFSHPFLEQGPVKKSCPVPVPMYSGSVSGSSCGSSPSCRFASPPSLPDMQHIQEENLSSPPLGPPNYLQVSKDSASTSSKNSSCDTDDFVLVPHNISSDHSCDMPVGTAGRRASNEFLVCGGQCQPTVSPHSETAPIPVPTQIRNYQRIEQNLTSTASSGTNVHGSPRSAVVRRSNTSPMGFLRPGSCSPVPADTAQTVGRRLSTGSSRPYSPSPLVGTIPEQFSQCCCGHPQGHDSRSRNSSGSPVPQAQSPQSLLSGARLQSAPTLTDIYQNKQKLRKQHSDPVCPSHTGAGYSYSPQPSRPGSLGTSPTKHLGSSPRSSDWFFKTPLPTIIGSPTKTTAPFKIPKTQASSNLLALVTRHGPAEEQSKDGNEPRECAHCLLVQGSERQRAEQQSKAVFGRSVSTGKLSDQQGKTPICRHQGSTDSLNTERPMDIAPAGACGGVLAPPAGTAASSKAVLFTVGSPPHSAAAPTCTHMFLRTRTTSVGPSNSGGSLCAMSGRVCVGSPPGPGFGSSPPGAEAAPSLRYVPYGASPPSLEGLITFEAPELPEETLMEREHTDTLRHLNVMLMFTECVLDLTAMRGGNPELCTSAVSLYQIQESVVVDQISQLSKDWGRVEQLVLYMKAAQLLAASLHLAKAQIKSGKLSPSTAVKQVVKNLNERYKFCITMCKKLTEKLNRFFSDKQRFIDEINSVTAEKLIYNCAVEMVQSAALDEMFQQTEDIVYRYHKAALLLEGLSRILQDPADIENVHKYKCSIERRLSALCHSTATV

[13] = biological target: T13, PIP5K1α (Homo sapiens, UniProt Q99755); conditions: at 20,000 nM inhibitor; kinase activity remaining
T13 construct: purchased Millipore KinaseProfiler

[14] = biological target: T14, CHK2(I157T) (Homo sapiens, UniProt O96017, I157T); conditions: at 20,000 nM inhibitor; kinase activity remaining
T14 construct: purchased Millipore KinaseProfiler
T14 sequence (O96017 whole entry I157T): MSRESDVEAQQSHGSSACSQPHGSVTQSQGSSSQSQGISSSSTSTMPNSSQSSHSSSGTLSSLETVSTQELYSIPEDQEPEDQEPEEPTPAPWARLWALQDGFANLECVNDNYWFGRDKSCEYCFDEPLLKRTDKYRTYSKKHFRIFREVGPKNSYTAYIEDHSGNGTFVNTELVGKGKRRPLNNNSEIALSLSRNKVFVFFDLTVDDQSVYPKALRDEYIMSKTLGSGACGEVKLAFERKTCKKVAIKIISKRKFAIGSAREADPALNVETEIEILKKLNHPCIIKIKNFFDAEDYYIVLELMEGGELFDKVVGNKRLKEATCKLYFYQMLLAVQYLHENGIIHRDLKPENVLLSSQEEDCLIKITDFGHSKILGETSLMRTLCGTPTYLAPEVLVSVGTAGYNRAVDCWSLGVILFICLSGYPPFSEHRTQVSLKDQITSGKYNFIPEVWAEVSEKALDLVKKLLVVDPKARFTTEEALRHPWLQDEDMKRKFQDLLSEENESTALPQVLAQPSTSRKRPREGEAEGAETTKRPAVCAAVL

[15] = biological target: T15, MARK1 (Homo sapiens, UniProt Q9P0L2); conditions: at 20,000 nM inhibitor; kinase activity remaining
T15 construct: purchased Millipore KinaseProfiler

[16] = biological target: T16, CHK2(R145W) (Homo sapiens, UniProt O96017, R145W); conditions: at 20,000 nM inhibitor; kinase activity remaining
T16 construct: purchased Millipore KinaseProfiler
T16 sequence (O96017 whole entry R145W): as the sequence (O96017 whole entry I157T) above, with R145W, T157I counted along it

[17] = biological target: T17, Lyn (Homo sapiens, UniProt P07948); conditions: at 20,000 nM inhibitor; kinase activity remaining
T17 construct: purchased Millipore KinaseProfiler
T17 sequence (P07948 whole entry): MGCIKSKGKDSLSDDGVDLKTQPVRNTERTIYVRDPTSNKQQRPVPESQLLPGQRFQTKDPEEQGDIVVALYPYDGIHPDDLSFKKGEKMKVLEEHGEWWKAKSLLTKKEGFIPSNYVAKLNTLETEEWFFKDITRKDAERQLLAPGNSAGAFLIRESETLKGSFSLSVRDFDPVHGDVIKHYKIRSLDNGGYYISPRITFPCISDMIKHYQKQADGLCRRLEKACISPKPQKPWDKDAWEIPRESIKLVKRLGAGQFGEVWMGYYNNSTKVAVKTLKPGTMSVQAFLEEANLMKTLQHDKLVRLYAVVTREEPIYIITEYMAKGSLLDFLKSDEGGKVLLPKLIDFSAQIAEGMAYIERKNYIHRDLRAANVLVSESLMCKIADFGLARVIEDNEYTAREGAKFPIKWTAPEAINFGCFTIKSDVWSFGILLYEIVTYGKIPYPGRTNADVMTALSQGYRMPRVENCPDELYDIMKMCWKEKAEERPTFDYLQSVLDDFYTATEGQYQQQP

[18] = biological target: T18, ZIPK (Homo sapiens, UniProt O43293); conditions: at 20,000 nM inhibitor; kinase activity remaining
T18 construct: purchased Millipore KinaseProfiler

[19] = biological target: T19, FGFR2(N549H) (Homo sapiens, UniProt P21802, N549H); conditions: at 20,000 nM inhibitor; kinase activity remaining
T19 construct: purchased Millipore KinaseProfiler

[20] = at 20,000 nM inhibitor, kinase activity remaining, read-out: % Activity

| SMILES | activity at 20 µM [1] [%] | activity at 20 µM [3] [%] | activity at 20 µM [4] [%] | activity at 20 µM [5] [%] | activity at 20 µM [6] [%] | activity at 20 µM [7] [%] | activity at 20 µM [8] [%] | activity at 20 µM [9] [%] | activity at 20 µM [11] [%] | activity at 20 µM [12] [%] | activity at 20 µM [13] [%] | activity at 20 µM [14] [%] | activity at 20 µM [15] [%] | activity at 20 µM [16] [%] | activity at 20 µM [17] [%] | activity at 20 µM [18] [%] | activity at 20 µM [19] [%] | other results |
| --- | --- | --- | --- | --- | --- | --- | --- | --- | --- | --- | --- | --- | --- | --- | --- | --- | --- | --- |
| CN(C)c1cc(-c2ccncc2)c(-c2cccc3ccccc23)nn1 [MW181, N,N-dimethyl-6-(naphthalen-1-yl)-5-(pyridin-4-yl)pyridazin-3-amine] | 96 | 91 | 101 | 112 | 109 | 105 | 92 | 111 | 104 | 101 | 102 | 100 | 102 | 91 | 93 | 106 | 96 | activity at 20 µM [2, 20]: 102%; activity at 20 µM [10, 20]: 86% |
| CN(C)c1cc(-c2ccncc2)c(-c2ccc3ccccc3c2)nn1 [MW108, N, N-dimethyl-6-(naphthalen-2-yl)-5-(pyridin-4-yl)pyridazin-3-amine] | 91 | 90 | 102 | 87 | 117 | 130 | 36 | 93 | 102 | 100 | 104 | 101 | 113 | 97 | 100 | 93 | 76 | activity at 20 µM [2]: 98%; pIC50 [8]: 4.79; pIC50 [10]: 5.54; activity at 20 µM [10]: 11% |
